ChEMBL document CHEMBL3991601, “The target landscape of clinical kinase drugs” (Science, 2017)
Activity calls are given as the source filed them. Rule as the data show it, for most assays here: actives have a measured Kd and inactives only a lower limit.

target: Serine/threonine-protein kinase ATR (Homo sapiens, UniProt Q13535)
Also: in the data inactive means no Kd found up to 30 µM.

Serine/threonine-protein kinase ATR, sequence (Q13535 whole entry): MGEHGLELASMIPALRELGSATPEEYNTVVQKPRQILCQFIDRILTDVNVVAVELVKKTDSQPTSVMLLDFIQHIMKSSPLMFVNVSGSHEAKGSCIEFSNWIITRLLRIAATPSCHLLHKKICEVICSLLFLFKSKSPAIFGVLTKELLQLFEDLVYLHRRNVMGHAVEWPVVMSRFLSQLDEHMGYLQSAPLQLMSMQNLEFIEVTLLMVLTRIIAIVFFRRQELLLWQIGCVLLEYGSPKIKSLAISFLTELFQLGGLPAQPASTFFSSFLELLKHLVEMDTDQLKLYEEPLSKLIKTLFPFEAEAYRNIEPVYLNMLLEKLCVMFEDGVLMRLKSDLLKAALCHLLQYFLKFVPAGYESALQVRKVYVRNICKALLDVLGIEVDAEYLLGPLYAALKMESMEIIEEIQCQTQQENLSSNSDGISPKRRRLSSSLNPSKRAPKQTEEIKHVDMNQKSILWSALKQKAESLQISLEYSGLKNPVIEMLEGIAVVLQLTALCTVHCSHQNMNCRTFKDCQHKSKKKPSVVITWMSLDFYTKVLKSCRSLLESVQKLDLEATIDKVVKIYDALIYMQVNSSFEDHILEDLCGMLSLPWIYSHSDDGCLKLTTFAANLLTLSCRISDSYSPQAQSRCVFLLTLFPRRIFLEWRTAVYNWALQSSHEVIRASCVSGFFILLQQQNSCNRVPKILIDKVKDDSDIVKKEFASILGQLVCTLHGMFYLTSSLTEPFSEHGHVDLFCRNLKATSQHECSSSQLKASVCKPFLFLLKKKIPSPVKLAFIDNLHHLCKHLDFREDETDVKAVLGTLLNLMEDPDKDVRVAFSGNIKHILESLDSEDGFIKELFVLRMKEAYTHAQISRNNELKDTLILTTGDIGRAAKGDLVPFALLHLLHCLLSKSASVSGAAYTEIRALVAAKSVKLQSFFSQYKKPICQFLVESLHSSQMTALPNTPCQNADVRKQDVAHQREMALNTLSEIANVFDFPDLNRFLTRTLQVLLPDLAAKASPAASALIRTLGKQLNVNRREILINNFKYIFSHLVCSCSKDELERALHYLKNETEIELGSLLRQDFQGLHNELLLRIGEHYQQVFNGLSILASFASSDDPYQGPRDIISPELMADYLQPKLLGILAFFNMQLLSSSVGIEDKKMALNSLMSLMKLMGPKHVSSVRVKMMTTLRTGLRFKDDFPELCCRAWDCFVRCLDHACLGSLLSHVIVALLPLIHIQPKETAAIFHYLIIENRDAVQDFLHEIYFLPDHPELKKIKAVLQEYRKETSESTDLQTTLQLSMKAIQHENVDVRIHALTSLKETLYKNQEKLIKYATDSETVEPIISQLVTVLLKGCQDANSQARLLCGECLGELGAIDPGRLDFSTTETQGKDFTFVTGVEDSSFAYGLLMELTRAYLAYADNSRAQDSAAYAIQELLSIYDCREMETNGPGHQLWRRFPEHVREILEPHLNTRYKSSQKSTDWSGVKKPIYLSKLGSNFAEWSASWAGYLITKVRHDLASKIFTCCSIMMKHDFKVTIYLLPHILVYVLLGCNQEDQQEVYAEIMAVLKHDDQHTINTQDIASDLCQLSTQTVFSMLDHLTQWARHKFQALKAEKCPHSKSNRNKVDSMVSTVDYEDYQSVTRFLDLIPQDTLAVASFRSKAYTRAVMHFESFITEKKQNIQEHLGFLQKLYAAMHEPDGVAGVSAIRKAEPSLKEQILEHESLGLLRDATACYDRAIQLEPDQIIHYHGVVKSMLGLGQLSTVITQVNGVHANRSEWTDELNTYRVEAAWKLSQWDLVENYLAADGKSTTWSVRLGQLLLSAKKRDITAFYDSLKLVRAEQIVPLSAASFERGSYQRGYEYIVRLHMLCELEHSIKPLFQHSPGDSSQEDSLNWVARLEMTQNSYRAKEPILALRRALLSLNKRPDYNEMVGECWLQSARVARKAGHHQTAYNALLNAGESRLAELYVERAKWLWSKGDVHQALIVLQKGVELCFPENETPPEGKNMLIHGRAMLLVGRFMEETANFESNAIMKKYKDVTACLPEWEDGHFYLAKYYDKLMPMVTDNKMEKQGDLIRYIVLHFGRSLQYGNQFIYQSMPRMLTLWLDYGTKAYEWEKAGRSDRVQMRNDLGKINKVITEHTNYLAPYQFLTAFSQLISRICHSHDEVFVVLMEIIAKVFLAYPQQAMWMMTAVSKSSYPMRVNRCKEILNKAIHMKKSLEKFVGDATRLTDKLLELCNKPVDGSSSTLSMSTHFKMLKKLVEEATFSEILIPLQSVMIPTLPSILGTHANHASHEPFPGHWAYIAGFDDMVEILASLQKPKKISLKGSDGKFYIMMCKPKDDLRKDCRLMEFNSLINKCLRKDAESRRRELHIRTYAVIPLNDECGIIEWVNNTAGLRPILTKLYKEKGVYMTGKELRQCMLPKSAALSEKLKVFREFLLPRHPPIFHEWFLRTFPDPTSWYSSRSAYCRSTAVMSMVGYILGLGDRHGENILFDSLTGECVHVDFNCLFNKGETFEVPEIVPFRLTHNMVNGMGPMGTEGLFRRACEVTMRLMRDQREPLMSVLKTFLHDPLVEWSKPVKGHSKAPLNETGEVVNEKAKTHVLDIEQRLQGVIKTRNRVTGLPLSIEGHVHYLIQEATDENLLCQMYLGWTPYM

| SMILES | Kd |
| --- | --- |
| O=C(c1ccc(F)c(F)c1Nc1ccc(I)cc1F)N1CC(O)([C@@H]2CCCCN2)C1 [COBIMETINIB] | > 30 µM (inactive) |
| COC(=O)N[C@@H](C)CNc1nccc(-c2cn(C(C)C)nc2-c2cc(Cl)cc(NS(C)(=O)=O)c2F)n1 [ENCORAFENIB] | > 30 µM (inactive) |
| CC[C@H](Nc1ncnc2[nH]cnc12)c1nc2cccc(F)c2c(=O)n1-c1ccccc1 [IDELALISIB] | > 30 µM (inactive) |
| CN(C)C(=O)c1cc2cnc(Nc3ccc(N4CCNCC4)cn3)nc2n1C1CCCC1 [RIBOCICLIB] | > 30 µM (inactive) |
| C[C@@H](c1ccc2nccn2c1)n1nnc2ncc(-c3cnn(C)c3)nc21 [SAVOLITINIB] | > 30 µM (inactive) |

target: Calcium/calmodulin-dependent protein kinase type II subunit gamma (Homo sapiens, UniProt Q13555)
Sequence (Q13555 whole entry): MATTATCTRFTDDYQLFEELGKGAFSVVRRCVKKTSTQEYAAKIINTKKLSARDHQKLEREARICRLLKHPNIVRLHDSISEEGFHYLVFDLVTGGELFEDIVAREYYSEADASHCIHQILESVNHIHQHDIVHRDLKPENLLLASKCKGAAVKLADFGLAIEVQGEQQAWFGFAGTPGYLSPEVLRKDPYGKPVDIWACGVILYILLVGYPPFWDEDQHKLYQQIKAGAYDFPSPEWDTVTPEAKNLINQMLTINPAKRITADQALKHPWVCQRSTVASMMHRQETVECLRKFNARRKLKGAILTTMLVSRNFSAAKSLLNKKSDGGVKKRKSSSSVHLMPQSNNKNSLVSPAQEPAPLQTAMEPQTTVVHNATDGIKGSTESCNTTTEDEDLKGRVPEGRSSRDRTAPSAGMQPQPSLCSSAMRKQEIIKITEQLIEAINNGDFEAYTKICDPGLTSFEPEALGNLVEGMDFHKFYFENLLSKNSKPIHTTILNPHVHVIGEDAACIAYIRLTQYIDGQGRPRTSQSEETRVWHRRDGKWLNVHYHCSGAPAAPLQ

| SMILES | Kd |
| --- | --- |
| O=C(c1ccc(F)c(F)c1Nc1ccc(I)cc1F)N1CC(O)([C@@H]2CCCCN2)C1 [COBIMETINIB] | > 30 µM (inactive) |
| COC(=O)N[C@@H](C)CNc1nccc(-c2cn(C(C)C)nc2-c2cc(Cl)cc(NS(C)(=O)=O)c2F)n1 [ENCORAFENIB] | > 30 µM (inactive) |
| CC[C@H](Nc1ncnc2[nH]cnc12)c1nc2cccc(F)c2c(=O)n1-c1ccccc1 [IDELALISIB] | > 30 µM (inactive) |
| CN(C)C(=O)c1cc2cnc(Nc3ccc(N4CCNCC4)cn3)nc2n1C1CCCC1 [RIBOCICLIB] | 0.247 µM (active) |
| C[C@@H](c1ccc2nccn2c1)n1nnc2ncc(-c3cnn(C)c3)nc21 [SAVOLITINIB] | > 30 µM (inactive) |

target: T1, Serine/threonine-protein kinase Chk1 (Homo sapiens, UniProt O14757)
T1 sequence (O14757 whole entry): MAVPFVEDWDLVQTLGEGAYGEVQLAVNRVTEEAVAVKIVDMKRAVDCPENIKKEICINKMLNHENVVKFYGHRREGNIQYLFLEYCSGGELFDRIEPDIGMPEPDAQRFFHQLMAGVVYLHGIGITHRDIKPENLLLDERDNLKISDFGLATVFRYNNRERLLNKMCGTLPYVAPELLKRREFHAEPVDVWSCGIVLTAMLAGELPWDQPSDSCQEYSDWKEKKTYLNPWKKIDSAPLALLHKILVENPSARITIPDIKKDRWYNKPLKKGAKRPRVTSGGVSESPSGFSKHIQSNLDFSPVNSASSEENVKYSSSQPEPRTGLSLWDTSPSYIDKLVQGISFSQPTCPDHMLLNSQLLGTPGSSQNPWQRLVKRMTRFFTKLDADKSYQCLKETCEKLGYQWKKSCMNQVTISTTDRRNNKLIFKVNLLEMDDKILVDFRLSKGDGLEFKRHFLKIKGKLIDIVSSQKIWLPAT

| SMILES | Kd |
| --- | --- |
| O=C(c1ccc(F)c(F)c1Nc1ccc(I)cc1F)N1CC(O)([C@@H]2CCCCN2)C1 [COBIMETINIB] | > 30 µM (inactive) |
| COC(=O)N[C@@H](C)CNc1nccc(-c2cn(C(C)C)nc2-c2cc(Cl)cc(NS(C)(=O)=O)c2F)n1 [ENCORAFENIB] | > 30 µM (inactive) |
| CC[C@H](Nc1ncnc2[nH]cnc12)c1nc2cccc(F)c2c(=O)n1-c1ccccc1 [IDELALISIB] | > 30 µM (inactive) |
| CN(C)C(=O)c1cc2cnc(Nc3ccc(N4CCNCC4)cn3)nc2n1C1CCCC1 [RIBOCICLIB] | > 30 µM (inactive) |
| C[C@@H](c1ccc2nccn2c1)n1nnc2ncc(-c3cnn(C)c3)nc21 [SAVOLITINIB] | > 30 µM (inactive) |

target: Dual specificity protein kinase CLK1 (Homo sapiens, UniProt P49759)
Sequence (P49759 whole entry): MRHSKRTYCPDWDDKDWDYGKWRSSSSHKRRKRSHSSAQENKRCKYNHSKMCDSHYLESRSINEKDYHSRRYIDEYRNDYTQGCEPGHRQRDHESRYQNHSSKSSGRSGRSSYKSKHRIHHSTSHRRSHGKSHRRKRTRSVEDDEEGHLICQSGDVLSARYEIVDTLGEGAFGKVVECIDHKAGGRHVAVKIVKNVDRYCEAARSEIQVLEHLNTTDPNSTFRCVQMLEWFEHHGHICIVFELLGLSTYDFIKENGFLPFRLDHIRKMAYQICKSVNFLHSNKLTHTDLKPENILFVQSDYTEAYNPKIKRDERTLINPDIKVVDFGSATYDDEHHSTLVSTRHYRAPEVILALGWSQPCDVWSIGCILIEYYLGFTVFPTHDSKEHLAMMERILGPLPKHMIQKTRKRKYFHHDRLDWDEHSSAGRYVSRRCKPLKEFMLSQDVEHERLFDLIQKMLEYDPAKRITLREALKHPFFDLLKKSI

| SMILES | Kd |
| --- | --- |
| O=C(c1ccc(F)c(F)c1Nc1ccc(I)cc1F)N1CC(O)([C@@H]2CCCCN2)C1 [COBIMETINIB] | > 30 µM (inactive) |
| COC(=O)N[C@@H](C)CNc1nccc(-c2cn(C(C)C)nc2-c2cc(Cl)cc(NS(C)(=O)=O)c2F)n1 [ENCORAFENIB] | > 30 µM (inactive) |
| CC[C@H](Nc1ncnc2[nH]cnc12)c1nc2cccc(F)c2c(=O)n1-c1ccccc1 [IDELALISIB] | > 30 µM (inactive) |
| CN(C)C(=O)c1cc2cnc(Nc3ccc(N4CCNCC4)cn3)nc2n1C1CCCC1 [RIBOCICLIB] | > 30 µM (inactive) |
| C[C@@H](c1ccc2nccn2c1)n1nnc2ncc(-c3cnn(C)c3)nc21 [SAVOLITINIB] | > 30 µM (inactive) |

target: Casein kinase I isoform delta (Homo sapiens, UniProt P48730)
Sequence (P48730 whole entry, canonical isoform): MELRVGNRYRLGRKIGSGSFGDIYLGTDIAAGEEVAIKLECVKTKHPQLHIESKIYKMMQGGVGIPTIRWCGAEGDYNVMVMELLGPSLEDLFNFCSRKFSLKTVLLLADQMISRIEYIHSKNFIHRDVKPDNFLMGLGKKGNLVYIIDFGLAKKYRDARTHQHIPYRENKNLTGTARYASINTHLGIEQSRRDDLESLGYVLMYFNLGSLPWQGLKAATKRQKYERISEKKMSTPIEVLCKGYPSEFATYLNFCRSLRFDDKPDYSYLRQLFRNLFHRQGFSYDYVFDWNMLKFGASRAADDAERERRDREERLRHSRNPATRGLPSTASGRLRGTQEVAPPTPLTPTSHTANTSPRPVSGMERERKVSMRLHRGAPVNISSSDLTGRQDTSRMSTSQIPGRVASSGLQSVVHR

| SMILES | Kd |
| --- | --- |
| O=C(c1ccc(F)c(F)c1Nc1ccc(I)cc1F)N1CC(O)([C@@H]2CCCCN2)C1 [COBIMETINIB] | > 30 µM (inactive) |
| COC(=O)N[C@@H](C)CNc1nccc(-c2cn(C(C)C)nc2-c2cc(Cl)cc(NS(C)(=O)=O)c2F)n1 [ENCORAFENIB] | > 30 µM (inactive) |
| CC[C@H](Nc1ncnc2[nH]cnc12)c1nc2cccc(F)c2c(=O)n1-c1ccccc1 [IDELALISIB] | > 30 µM (inactive) |
| CN(C)C(=O)c1cc2cnc(Nc3ccc(N4CCNCC4)cn3)nc2n1C1CCCC1 [RIBOCICLIB] | > 30 µM (inactive) |
| C[C@@H](c1ccc2nccn2c1)n1nnc2ncc(-c3cnn(C)c3)nc21 [SAVOLITINIB] | > 30 µM (inactive) |

target: Serine/threonine-protein kinase Nek7 (Homo sapiens, UniProt Q8TDX7)

| SMILES | Kd |
| --- | --- |
| O=C(c1ccc(F)c(F)c1Nc1ccc(I)cc1F)N1CC(O)([C@@H]2CCCCN2)C1 [COBIMETINIB] | > 30 µM (inactive) |
| CN(C)C(=O)c1cc2cnc(Nc3ccc(N4CCNCC4)cn3)nc2n1C1CCCC1 [RIBOCICLIB] | > 30 µM (inactive) |

target: T2, Pyridoxal kinase (Homo sapiens, UniProt O00764)
T2 sequence (O00764 whole entry): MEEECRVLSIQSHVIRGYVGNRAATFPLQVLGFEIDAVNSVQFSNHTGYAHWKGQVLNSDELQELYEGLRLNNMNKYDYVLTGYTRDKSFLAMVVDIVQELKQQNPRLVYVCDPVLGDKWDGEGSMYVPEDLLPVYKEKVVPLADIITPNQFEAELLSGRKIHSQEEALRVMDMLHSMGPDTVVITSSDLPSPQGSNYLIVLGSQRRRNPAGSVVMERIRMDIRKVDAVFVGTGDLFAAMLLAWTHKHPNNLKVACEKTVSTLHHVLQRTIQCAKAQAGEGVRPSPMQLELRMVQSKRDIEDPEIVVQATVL

| SMILES | Kd |
| --- | --- |
| O=C(c1ccc(F)c(F)c1Nc1ccc(I)cc1F)N1CC(O)([C@@H]2CCCCN2)C1 [COBIMETINIB] | > 30 µM (inactive) |
| COC(=O)N[C@@H](C)CNc1nccc(-c2cn(C(C)C)nc2-c2cc(Cl)cc(NS(C)(=O)=O)c2F)n1 [ENCORAFENIB] | > 30 µM (inactive) |
| CC[C@H](Nc1ncnc2[nH]cnc12)c1nc2cccc(F)c2c(=O)n1-c1ccccc1 [IDELALISIB] | > 30 µM (inactive) |
| CN(C)C(=O)c1cc2cnc(Nc3ccc(N4CCNCC4)cn3)nc2n1C1CCCC1 [RIBOCICLIB] | > 30 µM (inactive) |
| C[C@@H](c1ccc2nccn2c1)n1nnc2ncc(-c3cnn(C)c3)nc21 [SAVOLITINIB] | > 30 µM (inactive) |

target: Serine/threonine-protein kinase N3 (Homo sapiens, UniProt Q6P5Z2)
Sequence (Q6P5Z2 whole entry): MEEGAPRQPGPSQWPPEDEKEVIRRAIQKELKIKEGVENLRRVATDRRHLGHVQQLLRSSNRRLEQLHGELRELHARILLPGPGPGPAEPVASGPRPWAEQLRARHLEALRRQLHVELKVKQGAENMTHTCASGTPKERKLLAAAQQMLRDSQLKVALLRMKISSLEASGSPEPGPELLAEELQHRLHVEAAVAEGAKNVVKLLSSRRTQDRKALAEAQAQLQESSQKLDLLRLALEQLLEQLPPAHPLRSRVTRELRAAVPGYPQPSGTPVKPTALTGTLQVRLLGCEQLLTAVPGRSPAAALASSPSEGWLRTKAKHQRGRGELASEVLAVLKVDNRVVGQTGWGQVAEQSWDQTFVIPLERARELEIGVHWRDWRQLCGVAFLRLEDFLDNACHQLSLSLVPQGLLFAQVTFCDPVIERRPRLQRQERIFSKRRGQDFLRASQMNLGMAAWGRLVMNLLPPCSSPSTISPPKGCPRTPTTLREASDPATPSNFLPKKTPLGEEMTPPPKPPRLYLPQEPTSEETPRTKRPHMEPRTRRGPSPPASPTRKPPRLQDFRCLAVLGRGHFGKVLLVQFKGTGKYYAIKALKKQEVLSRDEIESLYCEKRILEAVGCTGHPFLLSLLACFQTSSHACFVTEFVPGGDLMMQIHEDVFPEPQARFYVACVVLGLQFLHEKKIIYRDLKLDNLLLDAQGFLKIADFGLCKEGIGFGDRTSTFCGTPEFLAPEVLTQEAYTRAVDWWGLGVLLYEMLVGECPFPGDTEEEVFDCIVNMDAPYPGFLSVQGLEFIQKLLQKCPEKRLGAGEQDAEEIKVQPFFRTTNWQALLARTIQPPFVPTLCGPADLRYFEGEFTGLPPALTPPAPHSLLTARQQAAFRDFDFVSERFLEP

| SMILES | Kd |
| --- | --- |
| O=C(c1ccc(F)c(F)c1Nc1ccc(I)cc1F)N1CC(O)([C@@H]2CCCCN2)C1 [COBIMETINIB] | > 30 µM (inactive) |
| COC(=O)N[C@@H](C)CNc1nccc(-c2cn(C(C)C)nc2-c2cc(Cl)cc(NS(C)(=O)=O)c2F)n1 [ENCORAFENIB] | > 30 µM (inactive) |
| CC[C@H](Nc1ncnc2[nH]cnc12)c1nc2cccc(F)c2c(=O)n1-c1ccccc1 [IDELALISIB] | > 30 µM (inactive) |

target: cAMP-dependent protein kinase catalytic subunit alpha (Homo sapiens, UniProt P17612)

| SMILES | Kd |
| --- | --- |
| O=C(c1ccc(F)c(F)c1Nc1ccc(I)cc1F)N1CC(O)([C@@H]2CCCCN2)C1 [COBIMETINIB] | > 30 µM (inactive) |
| COC(=O)N[C@@H](C)CNc1nccc(-c2cn(C(C)C)nc2-c2cc(Cl)cc(NS(C)(=O)=O)c2F)n1 [ENCORAFENIB] | > 30 µM (inactive) |
| CC[C@H](Nc1ncnc2[nH]cnc12)c1nc2cccc(F)c2c(=O)n1-c1ccccc1 [IDELALISIB] | > 30 µM (inactive) |
| CN(C)C(=O)c1cc2cnc(Nc3ccc(N4CCNCC4)cn3)nc2n1C1CCCC1 [RIBOCICLIB] | > 30 µM (inactive) |
| C[C@@H](c1ccc2nccn2c1)n1nnc2ncc(-c3cnn(C)c3)nc21 [SAVOLITINIB] | > 30 µM (inactive) |

target: Ribosomal protein S6 kinase alpha-3 (Homo sapiens, UniProt P51812)

| SMILES | Kd |
| --- | --- |
| O=C(c1ccc(F)c(F)c1Nc1ccc(I)cc1F)N1CC(O)([C@@H]2CCCCN2)C1 [COBIMETINIB] | > 30 µM (inactive) |
| COC(=O)N[C@@H](C)CNc1nccc(-c2cn(C(C)C)nc2-c2cc(Cl)cc(NS(C)(=O)=O)c2F)n1 [ENCORAFENIB] | > 30 µM (inactive) |
| CC[C@H](Nc1ncnc2[nH]cnc12)c1nc2cccc(F)c2c(=O)n1-c1ccccc1 [IDELALISIB] | > 30 µM (inactive) |
| CN(C)C(=O)c1cc2cnc(Nc3ccc(N4CCNCC4)cn3)nc2n1C1CCCC1 [RIBOCICLIB] | > 30 µM (inactive) |
| C[C@@H](c1ccc2nccn2c1)n1nnc2ncc(-c3cnn(C)c3)nc21 [SAVOLITINIB] | > 30 µM (inactive) |

target: Ribosomal protein S6 kinase alpha-5 (Homo sapiens, UniProt O75582)

| SMILES | Kd |
| --- | --- |
| O=C(c1ccc(F)c(F)c1Nc1ccc(I)cc1F)N1CC(O)([C@@H]2CCCCN2)C1 [COBIMETINIB] | > 30 µM (inactive) |
| COC(=O)N[C@@H](C)CNc1nccc(-c2cn(C(C)C)nc2-c2cc(Cl)cc(NS(C)(=O)=O)c2F)n1 [ENCORAFENIB] | > 30 µM (inactive) |
| CC[C@H](Nc1ncnc2[nH]cnc12)c1nc2cccc(F)c2c(=O)n1-c1ccccc1 [IDELALISIB] | > 30 µM (inactive) |
| CN(C)C(=O)c1cc2cnc(Nc3ccc(N4CCNCC4)cn3)nc2n1C1CCCC1 [RIBOCICLIB] | > 30 µM (inactive) |
| C[C@@H](c1ccc2nccn2c1)n1nnc2ncc(-c3cnn(C)c3)nc21 [SAVOLITINIB] | > 30 µM (inactive) |
